Results published in patent US8697691B2, “Alkyl 3-((2-amidoethyl)amino)-8-azabicyclo[3.2.1]octane-8-carboxylate analogs as selective M1 agonists and methods of making and using same” (Vanderbilt University, priority 2009, dated 2014).
Substitutions are numbered along the chain they refer to. Where two headings read alike, the source gives them in different places.

Columns and labels:
[1] = molecular target: T1, rat M1 receptor (Rattus norvegicus, UniProt P08482); assay: Calcium mobilization assay, CHO-K1 cells stably expressing rat M1 (low throughput, Flexstation II); format: cell-based; conditions: for Emax: CHO-K1, read-out: Efficacy (% Max ACh)
T1 construct: host or cells: CHO-K1
T1 sequence (P08482 1-460): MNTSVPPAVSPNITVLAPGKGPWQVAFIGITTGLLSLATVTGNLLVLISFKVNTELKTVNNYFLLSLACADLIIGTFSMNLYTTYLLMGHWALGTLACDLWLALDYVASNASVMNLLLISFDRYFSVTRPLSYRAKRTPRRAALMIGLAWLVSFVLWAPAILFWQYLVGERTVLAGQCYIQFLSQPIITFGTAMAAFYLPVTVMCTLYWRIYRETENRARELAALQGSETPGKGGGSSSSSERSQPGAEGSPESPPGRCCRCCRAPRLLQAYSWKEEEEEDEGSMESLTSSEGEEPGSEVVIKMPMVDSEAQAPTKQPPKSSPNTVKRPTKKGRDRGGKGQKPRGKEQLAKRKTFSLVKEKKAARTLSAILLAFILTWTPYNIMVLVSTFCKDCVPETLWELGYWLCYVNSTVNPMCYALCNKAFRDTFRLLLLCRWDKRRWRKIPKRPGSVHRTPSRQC
Description: (§1) Chinese hamster ovary (CHO-K1) cells stably expressing rat (r)M1 were purchased from the American Type Culture Collection and cultured according to their indicated protocol. CHO cells stably expressing human (h)M2, hM3, and hM5 were described previously (Levey et al., 1991); hM1 and hM4 cDNAs were purchased from Missouri S&T cDNA Resource; rM4 cDNA was provided by T. I. Bonner (National Institutes of Health, Bethesda, Md.). hM1, hM4, and rM4 cDNAs were used to stably transfect CHO-K1 cells purchased from the American Type Culture Collection using Lipofectamine2000. To make stable hM2, hM4 and rM4 cell lines for use in calcium mobilization assays, these cells also were stably transfected with a chimeric G-protein (Gqi5) (provided by B. R. Conklin, University of California, San Francisco) using Lipofectamine 2000. rM1, hM3, and hM5 cells were grown in Ham's F-12 medium containing 10% heat-inactivated fetal bovine serum (FBS), 20 mM HEPES, and 50 μg/mL G418 sulfate. hM2-Gqi5 and hM4-Gqi5 cells were grown in the same medium also containing 500 μg/mL Hygromycin B. Stable rM4-Gqi5 cells were grown in DMEM containing 10% heat-inactivated FBS, 20 mM HEPES, 400 μg/mL G418 sulfate, and 500 μg/mL Hygromycin B. The rat M1 Y381A orthosteric mutant receptor cDNA was generated using the Quik-Change site-directed mutagenesis kit (Stratagene) and verified by sequencing. CHO-K1 cells were stably transfected with this cDNA using Lipofectamine2000 and screened for expression based on calcium mobilization in response to the allosteric M1 agonist N-desmethylclozapine.
For low throughput measurement of agonist-evoked increases in intracellular calcium, CHO-K1 cells stably expressing muscarinic receptors were plated in 100 μL of growth medium at 5×10^4 (rM1, hM3, and hM5) or 6×10^4 cells per well (rM1 Y381A, hM2, and rM4) in Costar 96-well black-walled, tissue culture (TC)-treated, clear-bottom plates (Fisher). Cells were incubated overnight at 37° C. and 5% CO2. The next day, medium was removed from the cells, and they were incubated with 50 μL of 2 μM Fluo-4/acetoxymethyl ester (Invitrogen, Carlsbad, Calif.) prepared as a 2.3 mM stock in DMSO and mixed in a 1:1 ratio with 10% (w/v) Pluronic F-127 and diluted in assay buffer [HBSS (Invitrogen) supplemented with 20 mM HEPES and 2.5 mM probenecid, pH 7.4] for 1 h at 37° C. and 5% CO2. Dye was removed and replaced with 50 μL of assay buffer. For calcium fluorescence measurements, CRCs of compounds (50 μl, 2×) were added 19 s after the beginning of data collection via a Flexstation II (Molecular Devices, Sunnyvale, Calif.). Fluorescence imaging continued for a total of 130 s acquisition time using an excitation wavelength of 488 nm, an emission wavelength of 525 nm, and a cutoff wavelength of 515 nm. All of the peaks of the calcium response were normalized to the response to a maximally effective concentration of ACh (ECmax). These normalized peak calcium response values were fit using GraphPad Prism version 4.0 to a four-parameter logistic equation to determine EC50 values.

[2] = molecular target: T2, human M1 receptor (Homo sapiens, UniProt P11229); assay: Calcium mobilization assay, CHO-K1 cells stably expressing hM1 (high throughput, FDSS 6000); format: cell-based; conditions: for Emax: CHO-K1, read-out: Efficacy (% Max ACh)
T2 construct: host or cells: CHO-K1
T2 sequence (P11229 1-460): T1 sequence (P08482 1-460) with V5A, S254T, S309P, K320R, G337A, V413I
Description: as §1
For high throughput measurement of agonist-evoked increases in intracellular calcium, CHO-K1 cells stably expressing muscarinic receptors were plated in growth medium lacking G418 and hygromycin at 15,000 cells/20 μL/well (hM1, hM2-Gqi5, hM3, hM4-Gq15, and hM5) in Greiner 384-well black-walled, tissue culture (TC)-treated, clear-bottom plates (VWR). Cells were incubated overnight at 37° C. and 5% CO2. The next day, cells were washed using an ELX 405 (BioTek) with three washes (50 μL) of assay buffer then aspirated to 15 μL. Next, 5 μL of 8 μM Fluo-4/acetoxymethyl ester (Invitrogen, Carlsbad, Calif.) prepared as a 2.3 mM stock in DMSO and mixed in a 1:1 ratio with 10% (w/v) Pluronic F-127 and diluted in assay buffer was added to the wells and the cell plates were incubated for 45 min at 37° C. and 5% CO2. Dye was removed by washing with the ELX 405 (three 50 μL washes of assay buffer) then aspirated to 20 μL. Agonist and compound master plates were formatted in an 11 point CRC format (1:3 dilutions) in 100% DMSO with a starting concentration of 10 mM using the BRAVO liquid handler (Agilent). Test compound CRCs were then transferred to daughter plates ([…]) using the Echo acoustic plate reformatter (Labcyte, Sunnyvale, Calif.) and then diluted into assay buffer (40 μL) to a 2× stock using a Thermo Fisher Combi (Thermo Fisher Scientific, Waltham, Mass.). Calcium flux was measured using the Functional Drug Screening System (FDSS) 6000 (Hamamatsu Corporation, Tokyo, Japan) as an increase in the fluorescent static ratio. 20 μL of Agonist Compounds were applied to cells using the automated system of the FDSS 6000 at 4 s into the 300 s protocol and the data were collected at 1 Hz. Concentration-response curves were generated using a four-parameter logistical equation in XLfit curve fitting software (IDBS, Bridgewater, N.J.) for Excel (Microsoft, Redmond, Wash.) or Prism (GraphPad Software, Inc., San Diego, Calif.).

[3] = rat M1, agonist-evoked calcium mobilization in CHO-K1 cells, read-out: Potency (EC50)
[4] = human M1, agonist-evoked calcium mobilization in CHO-K1 cells, read-out: Potency (EC50)

Row | Structure (SMILES) | Emax [1] [%] | Emax [2] [%] | other results
1 | CCOC(=O)N1C2CCC1CC(NCCNC(=O)c1ccccn1)C2 (stereo not shown) [Example 16, ethyl 3-{[2-(pyridin-2-ylformamido)ethyl]-amino}-8-azabicyclo[3.2.1]octane-8-carboxylate] | 22 |  | 
2 | CCOC(=O)N1C2CCC1CC(NCCNC(=O)c1ccc(Cl)cc1F)C2 (stereo not shown) [Example 17, ethyl 3-({2-[(4-chloro-2-fluorophenyl)formamido]-ethyl}amino)-8-azabicyclo[3.2.1]octane-8-carboxylate] | 20 |  | 
3 | CCOC(=O)N1C2CCC1CC(NCCNC(=O)c1ccccc1)C2 (stereo not shown) [Example 18, ethyl 3-{[2-(phenylformamido)ethyl]-amino}-8-azabicyclo[3.2.1]octane-8-carboxylate] | 103 |  | EC50 [1]: 67 nM
4 | CCOC(=O)N1C2CCC1CC(NCCNC(=O)Cc1ccccc1)C2 (stereo not shown) [Example 19, ethyl 3-{[2-(2-phenylacetamido)ethyl]-amino}-8-azabicyclo[3.2.1]octane-8-carboxylate] | 33 |  | 
5 | CCOC(=O)N1C2CCC1CC(NCCNC(=O)Cc1cccs1)C2 (stereo not shown) [Example 20, ethyl 3-({2-[2-(thiophen-2-yl)acetamido]ethyl}-amino)-8-azabicyclo[3.2.1]octane-8-carboxylate] | 51 |  | 
6 | CCOC(=O)N1C2CCC1CC(NCCNC(=O)c1c(F)cccc1F)C2 (stereo not shown) [Example 21, ethyl 3-({2-[(2,6-difluorophenyl)formamido]-ethyl}amino)-8-azabicyclo[3.2.1]octane-8-carboxylate] | 18 |  | EC50 [1, 3]: 880 nM
7 | CCOC(=O)N1C2CCC1CC(NCCNC(=O)c1ccc(F)c(OC)c1)C2 (stereo not shown) [Example 22, ethyl 3-({2-[(4-fluoro-3-methoxyphenyl)formamido]-ethyl}amino)-8-azabicyclo[3.2.1]octane-8-carboxylate] | 12 |  | EC50 [1, 3]: 1460 nM
8 | CCOC(=O)N1C2CCC1CC(NCCNC(=O)c1ccc(F)c(C(F)(F)F)c1)C2 (stereo not shown) [Example 23, ethyl 3-[(2-{[4-fluoro-3-(trifluoromethyl)phenyl]-formamido}ethyl)amino]-8-azabicyclo[3.2.1]octane-8-carboxylate] | 47 |  | EC50 [1, 3]: 2720 nM
9 | CCOC(=O)N1C2CCC1CC(NCCNC(=O)c1ccc(Cl)cc1)C2 (stereo not shown) [Example 24] | 25 |  | EC50 [1, 3]: 1070 nM
10 | CCOC(=O)N1C2CCC1CC(NCCNC(=O)c1ccccc1Cl)C2 (stereo not shown) [Example 25, ethyl 3-({2-[(2-chlorophenyl)formamido]-ethyl}amino)-8-azabicyclo[3.2.1]octane-8-carboxylate] | 80 |  | EC50 [1, 3]: 112 nM
11 | CCOC(=O)N1[C@@H]2CC[C@H]1C[C@H](NCCNC(=O)N1CCCCC1)C2 [Example 28, ethyl 3((3-exo)-(2-(piperidine-1-carboxamido)ethyl)amino)-8-azabicyclo[3.2.1]octane-8-carboxylate] |  | 46 | EC50 [2, 4]: 700 nM
12 | COC(=O)N1C2CCC1CC(NCCNC(=O)c1ccccc1)C2 (stereo not drawn) [Example 29, methyl 3-((3-exo)-(2-benzamidoethyl)amino)-8-azabicyclo[3.2.1]octane-8-carboxylate] |  | 7 | 
13 | C=CCOC(=O)N1[C@@H]2CC[C@H]1C[C@H](NCCNC(=O)c1ccccc1)C2 [Example 30, allyl 3-((3-exo)-(2-benzamidoethyl)amino)-8-azabicyclo[3.2.1]octane-8-carboxylate] |  | 29 | 
14 | CCOC(=O)N1[C@@H]2CC[C@H]1C[C@H](NCCNC(=O)c1ccccc1C)C2 [Example 31, ethyl 3-((3-exo)-(2-(2-methylbenzamido)ethyl)-amino)-8-azabicyclo[3.2.1]octane-8-carboxylate] |  | 38 | EC50 [2]: 2500 nM
15 | CCOC(=O)N1C2CCC1CC(NCCNC(=O)N1[C@H](C)CCC[C@@H]1C)C2 (stereo partly shown) [Example 32] |  | 26 | 
16 | CCOC(=O)N1[C@@H]2CC[C@H]1C[C@H](NCCNC(=O)c1ccc(F)cc1)C2 [Example 33, ethyl 3-((3-exo)-(2-(4-fluorobenzamido)ethyl)-amino)-8-azabicyclo[3.2.1]octane-8-carboxylate] |  | 48 | EC50 [2, 4]: 1700 nM
17 | CCOC(=O)N1[C@@H]2CC[C@H]1C[C@H](NCCNC(=O)C1CCCCC1)C2 [Example 34, ethyl 3-((3-exo)-(2-(cyclohexanecarboxamido)-ethyl)amino)-8-azabicyclo[3.2.1]octane-8-carboxylate] |  | 25 | EC50 [2, 4]: 3200 nM
18 | CCOC(=O)N1[C@@H]2CC[C@H]1C[C@H](NCCNC(=O)c1cccc(Cl)c1)C2 [Example 35, ethyl 3-((3-exo)-(2-(3-chlorobenzamido)ethyl)-amino)-8-azabicyclo[3.2.1]octane-8-carboxylate] |  | 57 | EC50 [2, 4]: 490 nM
19 | CCOC(=O)N1[C@@H]2CC[C@H]1C[C@H](NCCNC(=O)c1cc(F)cc(F)c1)C2 [Example 36, ethyl 3-((3-exo)-(2-(3,5-difluorobenzamido)ethyl)-amino)-8-azabicyclo[3.2.1]octane-8-carboxylate] |  | 37 | EC50 [2, 4]: 2600 nM
